In ChEMBL document CHEMBL5096184, “Structure activity relationship in β-carboline derived anti-malarial agents” (Eur J Med Chem, 2021) one finds IC50, EC50 and selectivity ratio data, which are given here for 18 molecules.

In brackets after ≈: the same amount, converted by molar mass. Several values for one entry are separate records, joined by “and”; a condition that tells them apart may be missing. Equal entries are not always repeated.

Series [1] relates to Plasmodium falciparum. The series is described as follows: Antiplasmodial activity against chloroquine sensitive Plasmodium falciparum FCCI-HN assessed as decrease in parasitemia level incubated for 24 hrs by Giemsa staining method. It counts as functional, organism-based.
Series [2] concerns Plasmodium falciparum. The series is described as follows: Antiplasmodial activity against chloroquine sensitive Plasmodium falciparum K1. The series is classed as functional, organism-based.
Series [3] deals with Plasmodium falciparum. The series is described as follows: Antiplasmodial activity against GHA chloroquine sensitive Plasmodium falciparum. It counts as functional, organism-based.
Series [4] can be described thus: Cytotoxicity against human MRC5 cells. The series is classed as toxicity, cell-based.
Series [5] deals with Plasmodium falciparum. The series is described as follows: Antimalarial activity against Plasmodium falciparum incubated for 72 hrs by SYBR green I-based assay. It counts as functional, organism-based.
Series [6] concerns Plasmodium falciparum. Put plainly: Antimalarial activity against Plasmodium falciparum K1. The series is classed as functional, organism-based.
Another series deals with Leishmania donovani. The series is described as follows: Antileishmanial activity against Leishmania donovani MHOM-ET-67/L82. It counts as functional, organism-based.
For another series, the system named is Trypanosoma brucei. Put plainly: Antitrypanosomal activity against Trypanosoma brucei rhodesiense STIB 900. It counts as functional, organism-based.
For another series, the system named is Trypanosoma cruzi. The series is described as follows: Antitrypanosomal activity against Trypanosoma cruzi Tulahuen C2C4. It counts as functional, organism-based.
Series [7] can be described thus: Cytotoxicity against rat L6 cells assessed as reduction in cell viability. The series is classed as toxicity, cell-based.
Series [8] can be described thus: Selectivity index, ratio of IC50 for rat L6 cells to IC50 for Plasmodium falciparum K1. The series is classed as toxicity. To be noted: L6 cells versus Plasmodium falciparum K1, read-out: Ratio IC50.
The subject of series [9] is Plasmodium falciparum. The series is described as follows: Antimalarial activity against Plasmodium falciparum D6. The series is classed as functional, organism-based.
Series [10] has as its system Plasmodium falciparum. The series is described as follows: Antimalarial activity against Plasmodium falciparum NF54 assessed as delayed-death phenotype incubated 72 to 96 hrs by SYBR green staining method. The series is classed as functional, organism-based.
The test system of another series is Plasmodium. Put plainly: Antimalarial activity against Plasmodium. It counts as functional, organism-based.
In series [11] the test system is Plasmodium falciparum. Put plainly: Antimalarial activity against Plasmodium falciparum W2. It counts as functional, organism-based.
Series [12] has as its system Plasmodium falciparum. The series is described as follows: Antimalarial activity against Plasmodium falciparum. It counts as functional, organism-based.
Series [13] concerns Plasmodium falciparum. The series is described as follows: Antimalarial activity against chloroquine sensitive Plasmodium falciparum FcM29-Cameroon in human RBC. It counts as functional, organism-based. To be noted: Erythrocyte.

On to `C/C=C(/CO[C@@H]1O[C@H](CO)[C@@H](O)[C@H](O)[C@H]1O)c1cc2n(c(=O)c1CO)CCc1c-2[nH]c2ccccc12`, for which the concentration for half-maximal inhibition (IC50) in the series on Plasmodium falciparum [1] came out at 9.7 µM.

Turning to `CC(=O)OC1=CO[C@@H](O[C@@H]2O[C@H](CO)[C@@H](O)[C@H](O)[C@H]2O)[C@H]2[C@@H]1C[C@@]13O[C@@H]2CN1CCC1c2ccccc2NC13` (some centres undefined), the IC50 with Plasmodium falciparum [2] amounted to 6.77 µM.

With `CC(C)(C)OC(=O)CC[C@@H]1NC(=O)[C@H]2Cc3c([nH]c4ccccc34)C(c3ccc4c(c3)OCO4)N2C1=O` (some centres undefined), the IC50 was 60 µM in the series on Plasmodium falciparum [3] and more than 64 µM in series [4].

`COC(=O)[C@@H]1[C@H]2C[C@H]3c4[nH]c5ccccc5c4CCN3C[C@@H]2CC[C@@H]1O` [YOHIMBINE]: in the series on Plasmodium falciparum [5], the EC50 is more than 50 µM.

As for `Brc1cccc2c1[nH]c1c[n+](Cc3cccc4ccccc34)ccc12`, the IC50 with Plasmodium falciparum [6] was found to be 0.502 µM; with Leishmania donovani it was 46.4 µM; in the series with Trypanosoma brucei it was 4.4 µM; in the series on Trypanosoma cruzi it was 7.9 µM; in series [7], 3.7 µM. In series [8], the selectivity ratio is 7.

For the molecule `O=C1N[C@@H](Cc2c[nH]c3ccccc23)C(=O)N2C(c3ccc4c(c3)OCO4)c3[nH]c4ccccc4c3C[C@H]12` (some centres undefined), the figures for the IC50 (in the series with Plasmodium falciparum [3]; in series [4]) were 25 µM and 35 µM, respectively.

With `Brc1ccc2[nH]c3c[n+](Cc4cccc5ccccc45)ccc3c2c1`, the IC50 is 0.481 µM in the series on Plasmodium falciparum [6]; 17.7 µM with Leishmania donovani; 4.1 µM in the series with Trypanosoma brucei; 7.5 µM in the series on Trypanosoma cruzi; 5.1 µM in series [7]. Besides, the selectivity ratio in series [8] was found to be 11.

Turning to `O[C@]12C=C[C@@H]3CCN(CCCCCCCC1)C[C@@]31C[C@@H]3CCCCCCN3[C@H]12`, the IC50 with Plasmodium falciparum [9] was found to be 82 ng/mL (≈ 0.212 µM).

Take `CCCc1cccc(-[n+]2ccc3c(c2)[nH]c2ccc(Br)cc23)c1`: the concentration for half-maximal inhibition (IC50) stood at 0.459 µM with Plasmodium falciparum [6]; 20.4 µM in the series on Leishmania donovani; 4.5 µM with Trypanosoma brucei; 12.6 µM with Trypanosoma cruzi; 27.5 µM in [7]. Further, the selectivity ratio in series [8] was determined as 60.

`O=C(O)C1Cc2c([nH]c3ccccc23)C(c2ccc(Cl)cc2Cl)N1` (centres undefined): the IC50 with Plasmodium falciparum [10] is 210 µM.

Consider `Oc1cccc2c1[nH]c1c(C3=C[C@@]4(O)CC/C=C\CCCCN5CC[C@@H]3[C@]3(C[C@@H]6/C=C\CCCCN6[C@H]34)C5)nccc12`, for which the IC50 stood at 6.1 ng/mL (≈ 0.0108 µM) in the series with Plasmodium, 6 ng/mL (≈ 0.0106 µM) in the series with Plasmodium falciparum [9] and 8 ng/mL (≈ 0.0142 µM) with Plasmodium falciparum [11].

Consider `NCCCC[C@H]1NC(=O)[C@H]2Cc3c([nH]c4ccccc34)C(c3ccc4c(c3)OCO4)N2C1=O` (some centres undefined), for which the IC50 was 4 µM with Plasmodium falciparum [3] and more than 64 µM in [4].

For `O=C1N[C@@H](COCc2ccccc2)C(=O)N2C(c3ccc4c(c3)OCO4)c3[nH]c4ccccc4c3C[C@H]12` (some centres undefined), the IC50 (in the series on Plasmodium falciparum [3]; in series [4]) was more than 64 µM each time.

For the molecule `C/C=C1/COC(=O)c2c1cc1n(c2=O)CCc2c-1[nH]c1c(O[C@@H]3O[C@H](CO)[C@@H](O)[C@H](O)[C@H]3O)cccc21`, in the series on Plasmodium falciparum [1], the IC50 is 42.1 µM.

The molecule `CC1(C)Cc2c([nH]c3ccccc23)C2(N1)C(=O)Nc1ccc(Cl)cc12` (racemic) returned an IC50 with Plasmodium falciparum [12] of 0.0027 µM.

Molecule `C[n+]1ccc2c(c1)[nH]c1ccc(Br)cc12` had an IC50 with Leishmania donovani of more than 223 µM.

For the molecule `COC(=O)C1=CO[C@@H](C)[C@@H]2CN3CCc4c([nH]c5ccc(OC)cc45)[C@@H]3C[C@H]12` [ARICINE], in the series on Plasmodium falciparum [13], the IC50 is 0.3 µg/mL and 690 nM.

In turn, `O=c1c(O[C@@H]2OC[C@](O)(CO[C@@H]3O[C@H](CO)[C@@H](O)[C@H](O)[C@H]3O)[C@H](O)[C@H]2O)cc2nccc3c4ccccc4n1c23` showed an IC50 in the series with Plasmodium falciparum [2] of 25 µM.
